Measured values as given in US20210052719A1, “A UNIVERSAL VACCINE AGAINST INFLUENZA” (Development Center for Biotechnology, priority 2017, published 2021).
No end group written: not given here.

Experiments:
protease = settings: phenylalanine residues of JJ substituted
JJ peptide = assay: ELISA cross-reaction of induced IgGs with JJ peptide coated on plate; assay type: binding; settings: IgGs induced by the peptide, FIG. 2A, 2B
Description: (§1) Antibody titers were determined using ELISA. First, a capture antibody (e.g., JJ peptide or various subtypes of hemagglutinins or fragments thereof) was coated on a 96-well microplate (100 μL per well of the diluted capture antibody). The plate was sealed and incubated at 4° C. overnight. Then, 100 μL of sample (e.g., antiserum) or standards in sample dilution buffer were added per well. The plate was sealed and incubated at room temperature for 1 hr.
(§2) After incubation, 100 μL of a detection antibody (e.g., a horseradish peroxidase (HRP) coupled antibody), diluted in antibody dilution buffer, was added to each well. The plate was sealed and incubated at room temperature for 1 hr. Then, 200 μL of substrate solution (3,3′,5,5′-tetramethylbenzidine (TMB)) was added to each well. The reaction mixtures were incubated for 20 minutes at room temperature, without exposing the plate to direct light.
(§3) After the reaction, 50 μL of stop solution (acid solution) was added to each well. Then, the optical density of each well was measured immediately, using a microplate reader set to 450 nm.

[1] = system: influenza viruses of the H3 subtype; set-up: species or system influenza virus
[2] = antibody generation by immunizing mice with peptide, serum IgG by ELISA; assay type: in vivo, BALB/c and C57BL/6 mice; settings: for induction of antibody (specific anti-JJ IgG): 5 μg, 15 μg, or 45 μg dose, ELISA with JJ peptide coated, FIG. 2A, 2B
Description: In this example, the peptide antigens in accordance with embodiments of the invention were used to induce antibody formation in mice. BALB/c and C57BL/6 mice (6-8 weeks old) were obtained from BioLASCO Taiwan (Taipei, Taiwan) or National Laboratory Animal Center (Taipei, Taiwan).
[…] Each group of mice was injected with a different peptide (Exp0-Exp5) solution as an antigen. For the first immunization, each mouse was given a subcutaneous injection with 100 μL (containing […] each) of the above prepared antigen solution.
The second injection was given 10-14 days after the first injection. The solution for the second injection was prepared by mixing each peptide (6 different peptides, Exp0-Exp5, each at 1:1 mix) in Freund's incomplete adjuvant. The injections were repeated for subsequent immunizations every 10-14 days after the previous injections until antibodies could be detected in sera, which took from 3-6 injections.
Mouse sera were collected at the following time points: preimmunization and at the middle time point between two adjacent injections. Once the antibodies became detectable in sera, the serum collections were performed every two weeks until antibodies could no longer be detected, which typically took about half a year. The serum collections were performed from the cheeks of the mice. Each time, 100 uL or less of blood was collected and the collection frequency was about once every two weeks. At the end of the experiments, mice were euthanized with carbon dioxide.
as §1, with “The plate was sealed and incubated at room temperature for 1 hr.” left out
as §3

[3] = system: H3 subtype of hemagglutinin; assay: ELISA antibody titers against hemagglutinin subtypes; assay type: binding, influenza virus; settings: FIG. 3
Description: as §1, §2, §3

[4] = system: H1 subtype of hemagglutinin; assay: as above; assay type: binding, influenza virus; settings: FIG. 3
Description: as §1, §2, §3

[5] = system: influenza viruses of the H5 subtype; set-up: species or system influenza virus
[6] = system: H5 subtype of hemagglutinin; assay type: binding, influenza virus
[7] = system: influenza viruses of the H1 subtype; set-up: species or system influenza virus
[8] = system: H7 subtype of hemagglutinin; assay type: binding, influenza virus

| Sequence | protease resistance (protease) | binding of induced IgGs to JJ peptide (cross-reaction) (JJ peptide) | inhibition of hemagglutination by induced antibodies [1] | induction of antibody (specific anti-JJ IgG) [2] | reaction of antibodies generated with the peptide with hemagglutinin [3] | reaction of antibodies generated with the peptide with hemagglutinin [4] | inhibition of hemagglutination by induced antibodies [5] | reaction of antibodies generated with the peptide with hemagglutinin [6] | inhibition of hemagglutination by induced antibodies [7] | reaction of antibodies generated with the peptide with hemagglutinin [8] | induction of antibody (specific anti-JJ3 IgG) ([2]; higher doses (15 μg and 45 μg), ELISA with peptide JJ-3 coated, FIG. 2C) |
| --- | --- | --- | --- | --- | --- | --- | --- | --- | --- | --- | --- |
| GLHGAIAGLIENGW [JJ-4] | protease-resistant |  |  |  |  |  |  |  |  |  |  |
| GLLGAIAGPIEF [JJ-1] | protease-resistant | bind the JJ peptide | able to inhibit hemagglutination | efficiently induce IgG production | reacted | reacted | able to inhibit hemagglutination | reacted | able to inhibit hemagglutination | reacted |  |
| GLLGAIAGPIEGGW [JJ-3] | protease-resistant |  |  |  |  |  |  |  |  |  | induced the production of specific anti-JJ3 antibodies |
| GLMGAIAGPIEF [JJ-2] | protease-resistant |  |  |  |  |  |  |  |  |  |  |
| GLFGAIAGFIE [JJ] |  | bind the JJ peptide | able to inhibit hemagglutination | induced antibody (IgG) production | reacted | reacted | able to inhibit hemagglutination | reacted | able to inhibit hemagglutination | reacted |  |
